The record followed here is the NIST ThermoML archive (doi:10.1016/j.fluid.2015.10.016).

The conditions of data set [1]: Crystal; DTA.
Data set [2] in a line: Molar enthalpy of transition or fusion. Conditions: Crystal; DSC.

Numbers after ± are expanded uncertainties.

For the compound `CCCC[N+]1(C)CCCC1.O=S(=O)([O-])C(F)(F)F` [1-butyl-1-methylpyrrolidinium trifluoromethanesulfonate], in data set [1], the Normal melting temperature was -0.2 ± 0.4 °C. For the same compound, the “Molar enthalpy of transition or fusion” value in data set [2] came out at 2.88 ± 0.0908 kcal/mol.
The matching figures for `CCCC[N+]1(C)CCCC1.N#C[B-](C#N)(C#N)C#N` [1-butyl-1-methylpyrrolidinium tetracyanoborate]: 19.7 ± 0.4 °C and 4.97 ± 0.117 kcal/mol.
For the compound `OCCc1ccccc1` [2-phenylethanol], in data set [1], the Normal melting temperature is -27 ± 1 °C. The “Molar enthalpy of transition or fusion” value in data set [2] amounted to 2.31 ± 0.0956 kcal/mol.
With `CCCC[N+]1(C)CCCC1.N#CC(=C=[N-])C#N` [1-butyl-1-methylpyrrolidinium tricyanomethanide], the Normal melting temperature in data set [1] is -8.8 ± 0.4 °C. Further, in data set [2], the “Molar enthalpy of transition or fusion” value was determined as 2.25 ± 0.0789 kcal/mol.
